According to patent US11739098B2 (BRISTOL-MYERS SQUIBB COMPANY, priority 2017, dated 2023):

Experiments:
Assay type in all cases: cell-based
human TLR9 = molecular target: T1, human TLR9 (Homo sapiens, UniProt Q9NR96); assay: TLR9 inhibition reporter assay (HEK-Blue cells, SEAP reporter, ODN2006 stimulation); settings: HEK-Blue cells overexpressing human TLR9, SEAP reporter, ODN2006 5 nM
T1 construct: host or cells: HEK-Blue cells (HEK293-derived reporter line)
T1 sequence (Q9NR96 26-1032): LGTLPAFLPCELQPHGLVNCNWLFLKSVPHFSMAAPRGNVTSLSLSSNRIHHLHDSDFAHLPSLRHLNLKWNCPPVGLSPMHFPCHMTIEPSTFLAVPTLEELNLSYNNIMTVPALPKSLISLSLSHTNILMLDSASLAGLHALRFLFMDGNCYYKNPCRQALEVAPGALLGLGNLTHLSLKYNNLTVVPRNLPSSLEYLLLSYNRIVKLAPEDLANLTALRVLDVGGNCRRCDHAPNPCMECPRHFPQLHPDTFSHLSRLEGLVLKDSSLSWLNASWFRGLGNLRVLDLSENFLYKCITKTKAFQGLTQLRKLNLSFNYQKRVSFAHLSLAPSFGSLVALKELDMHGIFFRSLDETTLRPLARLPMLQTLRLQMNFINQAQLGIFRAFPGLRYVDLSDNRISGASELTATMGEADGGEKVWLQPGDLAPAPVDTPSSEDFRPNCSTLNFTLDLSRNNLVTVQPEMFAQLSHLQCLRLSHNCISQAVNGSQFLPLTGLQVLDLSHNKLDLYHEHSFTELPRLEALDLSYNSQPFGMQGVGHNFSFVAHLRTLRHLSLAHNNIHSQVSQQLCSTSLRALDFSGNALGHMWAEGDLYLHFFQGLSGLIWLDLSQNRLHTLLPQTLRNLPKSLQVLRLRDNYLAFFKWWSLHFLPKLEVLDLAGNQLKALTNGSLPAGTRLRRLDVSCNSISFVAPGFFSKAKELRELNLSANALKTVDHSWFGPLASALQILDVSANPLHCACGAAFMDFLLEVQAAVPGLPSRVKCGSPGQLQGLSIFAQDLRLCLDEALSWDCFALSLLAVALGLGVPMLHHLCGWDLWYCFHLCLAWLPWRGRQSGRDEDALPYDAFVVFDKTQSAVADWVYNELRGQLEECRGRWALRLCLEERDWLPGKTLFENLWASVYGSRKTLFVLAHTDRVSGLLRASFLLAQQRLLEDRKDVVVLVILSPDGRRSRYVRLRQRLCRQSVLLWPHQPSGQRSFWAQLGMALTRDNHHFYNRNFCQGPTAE
Outline: (§1)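 Agonists (final): TLR7 gardiquimod 7.5 μM; TLR8 R848 15.9 μM; TLR9 ODN2006 5 nM. HEK-Blue reporter cells, 30 min RT compound pre-incubation, 0.05 nM–50 μM dose range, 22 h at 37 °C, colorimetric SEAP detection medium. % inhibition relative to agonist+DMSO and known-inhibitor wells.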

human TLR7 = molecular target: T2, human TLR7 (Homo sapiens, UniProt Q9NYK1); assay: TLR7 inhibition reporter assay (HEK-Blue cells, SEAP reporter, gardiquimod stimulation); settings: HEK-Blue cells overexpressing human TLR7, SEAP reporter, gardiquimod 7.5 μM
T2 construct: host or cells: HEK-Blue cells (HEK293-derived reporter line)
T2 sequence (Q9NYK1 27-1049): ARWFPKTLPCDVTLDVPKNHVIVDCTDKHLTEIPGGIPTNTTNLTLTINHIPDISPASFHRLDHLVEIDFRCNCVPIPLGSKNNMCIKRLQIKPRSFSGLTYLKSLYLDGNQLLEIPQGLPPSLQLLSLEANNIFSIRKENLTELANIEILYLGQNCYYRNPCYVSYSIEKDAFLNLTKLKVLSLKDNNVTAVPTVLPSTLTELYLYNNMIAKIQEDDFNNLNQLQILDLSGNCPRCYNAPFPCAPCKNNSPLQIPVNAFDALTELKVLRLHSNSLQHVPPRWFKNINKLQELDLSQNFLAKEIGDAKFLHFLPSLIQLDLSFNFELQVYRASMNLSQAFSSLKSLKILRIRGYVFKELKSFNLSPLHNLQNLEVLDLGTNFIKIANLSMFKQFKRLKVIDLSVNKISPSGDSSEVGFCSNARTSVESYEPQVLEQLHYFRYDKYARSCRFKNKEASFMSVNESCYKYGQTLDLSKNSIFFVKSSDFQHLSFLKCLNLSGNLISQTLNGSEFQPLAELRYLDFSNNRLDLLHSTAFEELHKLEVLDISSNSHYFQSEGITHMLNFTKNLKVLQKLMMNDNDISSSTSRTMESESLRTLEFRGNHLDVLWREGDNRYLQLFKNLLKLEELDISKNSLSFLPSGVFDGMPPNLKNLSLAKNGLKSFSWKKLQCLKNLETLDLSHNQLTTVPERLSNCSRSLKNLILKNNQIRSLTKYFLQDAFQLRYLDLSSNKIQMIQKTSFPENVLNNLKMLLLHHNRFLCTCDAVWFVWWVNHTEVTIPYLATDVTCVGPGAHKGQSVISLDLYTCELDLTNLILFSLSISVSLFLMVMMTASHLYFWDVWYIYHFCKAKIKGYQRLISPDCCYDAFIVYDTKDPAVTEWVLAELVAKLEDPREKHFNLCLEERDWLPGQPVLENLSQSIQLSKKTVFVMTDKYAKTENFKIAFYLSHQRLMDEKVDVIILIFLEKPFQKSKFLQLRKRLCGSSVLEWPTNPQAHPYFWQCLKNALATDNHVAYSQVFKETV
Outline: as §1

human TLR8 = molecular target: T3, human TLR8 (Homo sapiens, UniProt Q9NR97); assay: TLR8 inhibition reporter assay (HEK-Blue cells, SEAP reporter, R848 stimulation); settings: HEK-Blue cells overexpressing human TLR8, SEAP reporter, R848 15.9 μM
T3 construct: host or cells: HEK-Blue cells (HEK293-derived reporter line)
T3 sequence (Q9NR97 27-1041): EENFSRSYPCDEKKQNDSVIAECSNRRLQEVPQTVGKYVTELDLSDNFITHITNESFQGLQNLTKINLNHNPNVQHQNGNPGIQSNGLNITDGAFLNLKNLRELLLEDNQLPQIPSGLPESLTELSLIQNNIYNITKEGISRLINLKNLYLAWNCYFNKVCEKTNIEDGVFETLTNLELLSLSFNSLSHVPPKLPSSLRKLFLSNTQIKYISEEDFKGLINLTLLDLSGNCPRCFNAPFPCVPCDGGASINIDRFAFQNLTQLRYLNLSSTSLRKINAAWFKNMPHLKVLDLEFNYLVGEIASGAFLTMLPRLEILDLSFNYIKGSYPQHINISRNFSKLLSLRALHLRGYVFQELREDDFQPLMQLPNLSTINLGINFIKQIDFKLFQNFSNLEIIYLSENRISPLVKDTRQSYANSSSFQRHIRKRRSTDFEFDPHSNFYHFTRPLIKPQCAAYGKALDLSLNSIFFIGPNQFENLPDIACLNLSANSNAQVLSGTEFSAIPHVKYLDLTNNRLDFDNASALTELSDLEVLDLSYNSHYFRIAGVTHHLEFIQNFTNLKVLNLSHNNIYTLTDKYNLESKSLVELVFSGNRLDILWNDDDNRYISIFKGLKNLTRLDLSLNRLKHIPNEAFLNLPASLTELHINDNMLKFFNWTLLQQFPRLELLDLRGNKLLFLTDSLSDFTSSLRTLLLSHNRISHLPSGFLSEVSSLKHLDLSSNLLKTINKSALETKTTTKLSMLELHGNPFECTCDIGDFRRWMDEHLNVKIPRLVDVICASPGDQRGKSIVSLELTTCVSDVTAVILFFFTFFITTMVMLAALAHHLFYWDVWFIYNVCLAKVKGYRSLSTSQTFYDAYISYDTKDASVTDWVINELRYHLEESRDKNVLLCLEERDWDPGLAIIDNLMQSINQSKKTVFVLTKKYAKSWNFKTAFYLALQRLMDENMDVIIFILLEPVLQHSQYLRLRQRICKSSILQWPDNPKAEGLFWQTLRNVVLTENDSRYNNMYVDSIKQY
Outline: as §1

| SMILES | IC50 (human TLR9) | IC50 (human TLR7) | IC50 (human TLR8) |
| --- | --- | --- | --- |
| COc1nc(-c2[nH]c3ccc(C4CCNCC4)cc3c2C(C)C)cn2ncnc12 [Example 47, 6-(3-isopropyl-5-(piperidin-4-yl)-1H-indol-2-yl)-8-methoxy-[1,2,4]triazolo[1,5-a]pyrazine] | 1 to 50 µM | 0.1 to 1 µM | > 3.13 µM |
| CCc1c(-c2ccnc3[nH]ncc23)[nH]c2ccc(C3CCN(Cc4cn[nH]n4)CC3)cc12 [Example 892, 4-(5-(1-((2H-1,2,3-triazol-4-yl)methyl)piperidin-4-yl)-3-ethyl-1H-indol-2-yl)-1H-pyrazolo[3,4-b]pyridine] | 1 to 50 µM | < 0.1 µM | < 0.1 µM |
| Cc1cc(-c2[nH]c3ccc(C4CCN(C(=O)CN5[C@@H]6CC[C@H]5COC6)CC4)cc3c2C(C)C)cn2nnnc12 [Example 479, 2-((1R,5S)-3-oxa-8-azabicyclo[3.2.1]octan-8-yl)-1-(4-(3-isopropyl-2-(8-methyltetrazolo[1,5-a]pyridin-6-yl)-1H-indol-5-yl)piperidin-1-yl)ethan-1-one] | 1 to 50 µM | < 0.1 µM | < 0.1 µM |
| CCc1c(-c2cc3cn(C)nc3cn2)[nH]c2ccc(C3CCNCC3)cc12 [Example 98, 5-(3-ethyl-5-(piperidin-4-yl)-1H-indol-2-yl)-2-methyl-2H-pyrazolo[3,4-c]pyridine] | 1 to 50 µM | 1 to 50 µM | 0.1 to 1 µM |
| CC(C)c1c(-c2ccc3ncnn3n2)[nH]c2ccc(C3CCN(CC(=O)N(C)C)CC3)cc12 [Example 278, 2-(4-(2-([1,2,4]triazolo[1,5-b]pyridazin-6-yl)-3-isopropyl-1H-indol-5-yl)piperidin-1-yl)-N,N-dimethylacetamide] | 1 to 50 µM | < 0.1 µM | < 0.1 µM |
| Cc1cn2cc(-c3[nH]c4ccc(C5CCN(C(=O)CN(C)C)CC5)cc4c3C(C)C)ccc2n1 [Example 523, 2-(dimethylamino)-1-(4-(3-isopropyl-2-(2-methylimidazo [1,2-a]pyridin-6-yl)-1H-indol-5-yl)piperidin-1-yl)ethan-1-one] | 0.1 to 1 µM | < 0.1 µM | 0.1 to 1 µM |
| CC(C)c1c(-c2ccnc3cn[nH]c23)[nH]c2ccc(C3CCNCC3)cc12 [Example 54, 7-(3-isopropyl-5-(piperidin-4-yl)-1H-indol-2-yl)-1H-pyrazolo[4,3-b]pyridine] | 0.1 to 1 µM | < 0.1 µM | < 0.1 µM |

Further lines, results first:

| IC50 (human TLR9) | IC50 (human TLR7) | IC50 (human TLR8) | SMILES |
| --- | --- | --- | --- |
| 0.1 to 1 µM | < 0.1 µM | < 0.1 µM | CC(C)c1c(-c2ccnc3[nH]ncc23)[nH]c2cc(F)c(C3CCN(CC4CCN(C(C)C)C4)CC3)cc12 (stereo not drawn) [Example 852, 4-(6-fluoro-3-isopropyl-5-(1-((1-isopropylpyrrolidin-3-yl)methyl)piperidin-4-yl)-1H-indol-2-yl)-1H-pyrazolo[3,4-b]pyridine] |
| 0.1 to 1 µM | 0.1 to 1 µM | 0.1 to 1 µM | CNC(=O)CN1CCC(c2ccc3[nH]c(-c4cc(OC)n5ccnc5c4)c(C(C)C)c3c2)CC1 [Example 356, 2-(4-(3-isopropyl-2-(5-methoxyimidazo[1,2-a]pyridin-7-yl)-1H-indol-5-yl)piperidin-1-yl)-N-methylacetamide] |
| 0.1 to 1 µM | < 0.1 µM | 0.1 to 1 µM | CC(C)c1c(-c2ccc3oc(=O)[nH]c3c2)[nH]c2ccc(C3CCNCC3)cc12 [Example 11, 5-(3-isopropyl-5-(piperidin-4-yl)-1H-indol-2-yl)benzo[d]oxazol-2(3H)-one] |
| 0.1 to 1 µM | < 0.1 µM | < 0.1 µM | COc1cc(-c2[nH]c3ccc(C4CCNCC4)cc3c2C(C)C)nn2ncnc12 [Example 38, 6-(3-isopropyl-5-(piperidin-4-yl)-1H-indol-2-yl)-8-methoxy-[1,2,4]triazolo[1,5-b]pyridazine] |
| < 0.1 µM | < 0.1 µM | < 0.1 µM | CC(C)c1c(-c2ccnc3[nH]ncc23)[nH]c2ccc(C3CCN(C4CCN(C(C)C)CC4)CC3)cc12 [Example 821, 4-(3-isopropyl-5-(1′-isopropyl-[1,4′-bipiperidin]-4-yl)-1H-indol-2-yl)-1H-pyrazolo[3,4-b]pyridine] |
